{"source": "patent US12150970B2", "about": "“Composition for treatment of topical dermatological bacterial skin conditions” (ALPHYN BIOLOGICS, INC., priority 2021, dated 2024)", "origin": "cited, not measured here"}
{"tested_on": "cells", "settings": "compounds evaluated by Chen"}
{"compound": "Oc1cc(O)c2c(c1)O[C@H](c1ccc(O)c(O)c1)[C@@H](O)C2", "note": "[Catechin, catechin]", "effect on cell proliferation / healing (in words)": "little effect"}
{"compound": "Oc1cc(O)c2c(c1)O[C@H](c1cc(O)c(O)c(O)c1)[C@@H](O)C2", "note": "[Gallocatechin, gallocatechin]", "effect on cell proliferation / healing (in words)": "slightly stimulating to cell proliferation"}
{"compound": "COc1ccc2c(=O)oc3c(OC)cc(CCN(C)C)c4c(=O)oc1c2c34", "note": "[Taspine, taspine]", "effect on cell proliferation / healing (in words)": "little healing effects"}
{"compound": "COc1ccc([C@H]2Oc3c(OC)cc(CCCO)cc3[C@@H]2CO)cc1OC", "note": "[dimethylcedrusin]", "effect on cell proliferation / healing (in words)": "little healing effects"}
{"compound": "epicatechin", "effect on cell proliferation / healing (in words)": "little effect"}
{"compound": "epigallocatechin", "effect on cell proliferation / healing (in words)": "slightly stimulating to cell proliferation"}
